Measured values: patent publication US20070031485A1, “Pharmaceutical composition having a cationic excipient” (priority 2003, published 2007)
Read-outs that look alike come from different tables or passages of the source.

Key:
[1] = Critical micelle concentration; type: physicochemical
[2] = type: physicochemical; details: buffer
Description: Surface-active betaine esters are even more susceptible to alkaline hydrolysis than non-surface active esters. The reason for the increased reactivity of surface-active betaine esters is that the ester bond will hydrolyse more readily when the surfactants are in the form of aggregates, i.e. micelles. Like all other surfactants, surface-active betaine esters form micelles at a certain concentration, the CMC, and further increase of the surfactant concentration just leads to the formation of more micelles; the concentration of free surfactant molecules stays constant. In the vast majority of applications of cationic surfactants the concentration is far above the CMC, which means that almost all surfactants are in an aggregated form. The micelles of betaine ester surfactants are highly positively charged since all the quaternary ammonium groups are located at the surface of the aggregate. The positive charges must be compensated for by negatively charged ions, so-called counterions. All types of negative ions present in the solution, including hydroxyl ions, will accumulate at the micelle surface. This means that the local concentration of hydroxyl ions will be higher in the vicinity of the micelle than in the bulk, or, differently expressed, the local pH around the micelles will be higher than in the bulk. […]

[3] = Stabilization of aqueous dispersion of cholesterol particles, visual appearance; type: physicochemical; details: 1% cholesterol in 0.1% w/w (3 mM) dodecyl betainate solution
Protocol: The ability of dodecyl betainate to stabilize aqueous dispersions of hydrophobic particles was investigated in samples containing 1% cholesterol (of lanolin origin, Fluka) in pure water and in dodecyl betainate solutions of varying concentration. The samples were prepared by weighing the components into screw-capped glass vials that were first shaken, then kept in an ultrasonic bath for 5 minutes and finally shaken again before left for inspection. The table below presents the visual appearance of samples with different surfactant concentrations at different times.

[4] = test system: intestinal mucosa (small intestine segments)
Description: (§1) A modified Using diffusion chamber with an exposed tissue area 1.78 cm^2 was used in the experiments. 15 to 20 cm of the small intestine, distal to the Ligament of Treitz was removed from rats (male Sprague-Dawley, 400-500 g) and used in the tests. Three rats and three segments per rat were included in each experimental group. The passage of different marker molecules, ^14C-mannitol and FITC-dextran (4400 FD4), from the mucosal to the serosal chamber were expressed as apparent permeability coefficient (Papp). The apparent permeability coefficient (Papp) to mannitol and FITC-dextran 4.400 across the intestinal mucosa was calculated from the equation: Papp (cm/s)×10-6)=dc/dt * (V/(A*C0)), where dc/dt is the change of the serosal concentration over time (mol/L/sec), V is the volume in the reservoir of the serosal side (cm^3), CO is the initial concentration of the marker in the mucosal reservoir (mol/L), and A is the exposed intestinal area in the chamber (cm^2) .
(§2) The difference in electric potential over the segments was measured before and after the experiment.

[5] = test system: intestinal mucosa (small intestine segments); assay: Using (Ussing) diffusion chamber experiments, passage of marker molecules across rat small intestine; details: betaine ester containing solution (0.5 % w/w) compared to control
Description: as §1, §2

Protocol for Erythrocytes from rats: Erythrocytes from rats were washed 3 times and suspended in saline solution (0.9%) to a volume fraction of 0.025. The hemolys experiments were performed by mixing the erythrocyte suspension with surfactant solutions in a 1:1 ratio, thereby giving a finale erythrocyte volume fraction of 0.0125 and a surfactant concentration as stated in the figure. The samples were then incubated at 37° C. for 1 hour and centrifuged at 2000 g for 10 minutes. Aliquots of the supernatant was mixed with an equal volume of 15 mM C14TAC before the hemoglobin content was measured spectrophotometrically on a Lab systems iEMS Reader MF at 540 nm.
The concentrate was dispersed in saline solution by gentle stirring at room temperature just before the experiment. The resulting aqueous dispersion was tested in the same way as stated above for the surfactant solution.
The concentrations given in the figure represent the amounts of cationic surfactant in the tested solutions. […] The phosphatidyl choline used is Epikuron 200 from Degussa BioActives, a pharmaceutical grade product of soybean origin. All data are normalized to the absorbance obtained from hemolysis by the 0.5 mM tetradecyltrimethylammonium chloride sample.

SMILES | critical micelle concentration (CMC) [1] [mM] | half-life (hydrolysis) [2] [h] | Visual appearance after 5 min. [3] | permeability of intestinal segments for marker molecules [4] | toxicity to red blood cells (relative haemolytic effect) (Erythrocytes from rats; at low concentrations, 37° C., 1 hour, compared with C14TAC) | toxicity to red blood cells (relative haemolytic effect) (Erythrocytes from rats; betaine ester co-formulated with phosphatidyl choline (weight ratio 20 to 80)) | damage to segments, potential difference over the segments before and after treatment [5]
CCCCCCCCCCCCCC[N+](C)(C)C.[Cl-] [C14TAC, tetradecyltrimethylammonium chloride, reference compound] | 2.5 |  |  |  |  |  | 
CCOC(=O)C[N+](C)(C)C [ethyl betainate, reference compound] |  | 9 |  |  |  |  | 
CCCCCCCCCCCCOC(=O)C[N+](C)(C)C [dodecyl betainate] | 3.1 | 1.5 | Turbid dispersion | not affected | lower than that of the stable surfactant C14TAC | further lowered | no increased damage
